Data set [1] concerns Staphylococcus aureus. The experiment in a line: Antibacterial activity against methicillin-resistant Staphylococcus aureus assessed as bacterial growth inhibition incubated for 24 hrs by CLSI based micro-broth dilution assay. The format is functional.
Data set [2] is described as follows: (§1) Hemolytic activity in mouse RBC assessed as hemolysis incubated for 1 hrs by spectrophotometric analysis. The following applies: mouse red blood cells (erythrocytes). The format is toxicity, cell-based, Erythrocyte.
For another data set, the system named is Erythrocyte. The data set is described as §1. The format is toxicity, cell-based. The following applies: erythrocyte, 1 h.
The nature of data set [3]: Antiproliferative activity against HEK293T cells assessed as reduction in cell viability measured for 48 hrs by MTT assay. The settings on record: human. The format is toxicity, cell-based, HEK-293T.
Data set [4] relates to Staphylococcus aureus. As to the kind of experiment: Antibacterial activity against methicillin-resistant Staphylococcus aureus 19047 assessed as bacterial growth inhibition incubated for 24 hrs by CLSI based micro-broth dilution assay. The format is functional.
In data set [5] the test system is Staphylococcus aureus. The experiment in a line: Antibacterial activity against Staphylococcus aureus 25923 assessed as bacterial growth inhibition incubated for 24 hrs by CLSI based micro-broth dilution assay. The format is functional.
For data set [6], the system named is Staphylococcus aureus. As to the kind of experiment: Drug resistance, ratio of MIC for methicillin-resistant Staphylococcus aureus after 3 days exposure to MIC for methicillin-resistant Staphylococcus aureus during first exposure. The format is functional. The settings on record: time 3 day.
Data set [7] concerns Staphylococcus aureus. The experiment in a line: Drug resistance, ratio of MIC for methicillin-resistant Staphylococcus aureus after 7 days exposure to MIC for methicillin-resistant Staphylococcus aureus during first exposure. The following applies: time 7 day. The format is functional.
Data set [8] concerns Staphylococcus aureus. The experiment in a line: Antibacterial activity against methicillin-resistant Staphylococcus aureus assessed as fold reduction in viable bacteria at 8 times MIC measured at 3 to 6 hrs by time-kill assay. The format is functional, organism-based. The settings on record: time 3-6 hrs.
Data set [9] in a line: Stability in mouse blood plasma measured for 12 hrs by RP-HPLC analysis. The format is ADME, cell-free. The settings on record: read-out: Stability.
Data set [10] deals with T1, Monofunctional C1-tetrahydrofolate synthase, mitochondrial (Homo sapiens, UniProt Q6UB35).
T1 sequence (Q6UB35 whole entry): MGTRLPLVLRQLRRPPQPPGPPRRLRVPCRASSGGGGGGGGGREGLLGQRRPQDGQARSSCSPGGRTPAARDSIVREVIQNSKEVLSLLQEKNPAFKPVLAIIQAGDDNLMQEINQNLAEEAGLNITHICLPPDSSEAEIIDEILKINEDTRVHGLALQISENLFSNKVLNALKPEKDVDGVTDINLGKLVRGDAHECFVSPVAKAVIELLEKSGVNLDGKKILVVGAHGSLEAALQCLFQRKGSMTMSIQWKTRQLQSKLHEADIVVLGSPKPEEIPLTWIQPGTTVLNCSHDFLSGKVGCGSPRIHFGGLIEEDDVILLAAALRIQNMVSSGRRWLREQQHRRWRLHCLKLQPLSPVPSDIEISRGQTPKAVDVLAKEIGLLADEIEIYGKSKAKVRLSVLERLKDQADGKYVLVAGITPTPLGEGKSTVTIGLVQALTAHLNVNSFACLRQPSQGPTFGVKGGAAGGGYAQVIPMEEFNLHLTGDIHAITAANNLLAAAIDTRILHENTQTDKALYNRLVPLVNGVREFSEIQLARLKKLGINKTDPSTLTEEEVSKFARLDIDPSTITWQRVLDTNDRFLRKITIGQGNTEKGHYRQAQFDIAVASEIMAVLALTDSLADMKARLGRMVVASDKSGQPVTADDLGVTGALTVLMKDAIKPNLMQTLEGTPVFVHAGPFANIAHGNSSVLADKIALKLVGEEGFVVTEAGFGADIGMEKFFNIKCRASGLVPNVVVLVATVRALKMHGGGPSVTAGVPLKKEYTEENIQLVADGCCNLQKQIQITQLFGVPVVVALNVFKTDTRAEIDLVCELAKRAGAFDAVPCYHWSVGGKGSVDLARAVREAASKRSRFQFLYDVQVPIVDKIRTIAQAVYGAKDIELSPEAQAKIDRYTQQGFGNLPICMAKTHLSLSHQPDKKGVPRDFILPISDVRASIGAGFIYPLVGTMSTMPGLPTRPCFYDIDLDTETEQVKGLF
The experiment in a line: Binding affinity to FTHFS (unknown origin) expressed in Escherichia coli BL21 (DE3) using IPTG as […] assessed as dissociation constant by MST assay.

For data set [11], the system named is Staphylococcus aureus. As to the kind of experiment: Antibacterial activity against Staphylococcus aureus assessed as reduction in bacterial growth in presence of PABA. The format is functional, organism-based.
Data set [12] concerns Staphylococcus aureus. As to the kind of experiment: Antibacterial activity against Methicillin-resistant Staphylococcus aureus infected in ICR mouse skin infection model assessed as reduction in inflammatory infiltration at 40 mg/kg, sc by H and E staining based microscopic analysis. The format is functional, organism-based.

Activity calls are given as the source filed them. The calls are words filed in the database; no cut-off is given here.

As for H-LARVARRVIRFIRRAW-NH2, the MIC with Staphylococcus aureus [1], in the data set on Staphylococcus aureus [4] and in the data set with Staphylococcus aureus [5] was 3 µM each time. The HC50 at 1 h in data set [2] is above 320 µM. Also, in the data set with Erythrocyte, the HC10 is above 320 µM. The IC50 at 48 h in data set [3] was above 320 µM. Also, the Ratio came out at 50 in the data set on Staphylococcus aureus [6] and 100 with Staphylococcus aureus [7]. In addition, the outcome in the data set with Staphylococcus aureus [8], in the data set on Staphylococcus aureus [11] and in the data set with Staphylococcus aureus [12] was Active. In data set [9], the remaining at 12 h is 20%. In addition, the Kd in [10] is 2.24 µM.
With H-RRRLARRLIFFIRRAW-NH2, the values for the MIC with Staphylococcus aureus [1], with Staphylococcus aureus [4] and in the data set with Staphylococcus aureus [5] were 3 µM, 6 µM and 3 µM, respectively. In addition, in data set [2], the HC50 at 1 h is above 320 µM. Also, in the data set with Erythrocyte, the HC10 was above 320 µM. The IC50 at 48 h in data set [3] was above 320 µM. The Ratio in the data set with Staphylococcus aureus [6] worked out at 50; with Staphylococcus aureus [7], 100. Further, the outcome with Staphylococcus aureus [8], in the data set with Staphylococcus aureus [11] and with Staphylococcus aureus [12] was Active. In addition, the remaining at 12 h in data set [9] stood at 20%. Also, the dissociation constant Kd in data set [10] came to 3.68 µM.
